# Measured values taken from patent US12097171B2, “Petrolatum-based PHMB compositions and methods of treatment for onychomycosis” (GLOBAL HEALTH SOLUTIONS LLC, priority 2015, dated 2024).
# Several values for one entry are separate records, joined by “and”; a condition that tells them apart may be missing. Equal entries are not always repeated.
# Experiments:
# [1] = system: skin of female albino New Zealand White rabbits; test: Rabbit skin irritation; details: per rabbit, 24, 48 and 72 hour observations, two test sites, sulfate
# Protocol: Within 24 hours to 4 hours before test application, the backs of female albino New Zealand White rabbits were clipped free of hair, exposing 2 test and 2 control areas on each side of the spine with a size of approximately 15 cm×15 cm. The two test sites are located on the left cranial section and the right caudal section of the dorsal region. The two control sites are located on the left caudal and right cranial section of the dorsal region. FIG. 4 depicts the arrangement of test and control sites. The exposed skin is wiped with alcohol and dried. Rabbits of acceptable skin quality were selected and used for testing.
# A 25×25 mm gauze patch saturated with 0.5 mL of 0.9% NaCl is used for the control and applied to the clipped control sites. The patches are secured using hypoallergenic, waterproof, surgical tape over the test and control sites. The animal's trunk is securely wrapped so as to maintain the position of the patches. Patches are left applied for a minimum of four hours.
# After patch removal, the test and control sites were then scored for erythema and edema at 1, 24, 48 and 72 hours after patch removal. Only the 24, 48, and 72 hour observations were scored and used for calculations. If no response was expected, testing was conducted using three animals per test article. If irritation was anticipated, one animal was tested initially. If the first animal received a score of 2 or less for either erythema or edema, 2 additional rabbits were used to conclude the test.
# This total was divided by the total number of observations. The same was done for the control sites. […] These scores for each animal were added and divided by the total number of animals to give the Primary Irritation Index. […] For any response, the Maximum Irritation Response, the time of onset of the response and the time of maximum response was recorded.
# To positively validate the test, 10% sodium dodecyl sulfate (SDS), which is a known dermal irritant, in petroleum jelly was applied to a 2.5 cm×2.5 cm gauze patch. As a negative control, 0.5 mL of 0.9% NaCl was applied to a 2.5 cm×2.5 cm gauze patch. […]
# [2] = system: human subjects having onychomycosis; details: comparison value for standard of care; cited from earlier work
SMILES,ED (edema) score total ([1]; patch at least four hours),ER (erythema) score total ([1]; patch at least four hours),ER + ED = Total [1],effectiveness of standard of care treatments [2]
"CCCCCCCCCCCCOS(=O)(=O)[O-].[Na+] [10% SDS, sodium dodecyl sulfate]",19 and 21 and 14,21 and 23 and 18,40 and 44 and 32,–
CN(C/C=C/C#CC(C)(C)C)Cc1cccc2ccccc12 [Lamisil],–,–,–,20%
